{
  "source": "PubChem BioAssay AID2305",
  "about": "(GlaxoSmithKline (GSK), 2010)",
  "data": [
    {"system": "P. falciparum 3D7 growth, pLDH absorbance", "assay": "blood-stage malaria parasite growth potency – strain 3D7, dose response (AID 2305)", "units": {"IC50": "nM"}, "values": [
      {"smiles": "CC(C)N1CCCN(C(=O)C2CCN(c3ccc(C(=O)N4CCCC4)cn3)CC2)CC1", "IC50": 1060},
      {"smiles": "O=C(/C=C/c1ccc(Cl)c(Cl)c1)NCCCCCN1CCCC(CNC(=O)/C=C/c2ccccc2)C1", "note": "(centres undefined)", "IC50": 790},
      {"smiles": "COc1ccc(CCOc2c(C)nc(N)nc2N)cc1OC", "IC50": 70},
      {"smiles": "N[C@@H](Cc1ccc(O)cc1)C(=O)NC(c1ccccc1)c1c(O)ccc2ccccc12", "note": "(some centres undefined)", "IC50": 690},
      {"smiles": "COc1cc(C)c(C(O)CNC(C)CCc2ccccc2)cc1C", "note": "(centres undefined)", "IC50": 730},
      {"smiles": "CC(=O)Nc1ccc2[nH]cc(C3CCN(CC4CCN(C(=O)/C=C/c5ccc(Cl)c(Cl)c5)CC4)CC3)c2c1", "IC50": 720},
      {"smiles": "Cc1cc(-c2ccc(Cl)cc2)c2c(N)c(C(=O)Nc3ccc(F)cc3)sc2n1", "IC50": 820},
      {"smiles": "Cc1cccc2[nH]c(-c3ccc(-c4cccc(NC(=O)Nc5ccsc5)c4)cc3)nc12", "IC50": 800},
      {"smiles": "CC1(C)N=C(N)N=C(N)N1c1ccc(Br)cc1", "IC50": 10},
      {"smiles": "CC(=O)Nc1ccc(C(=O)Nc2ccc(-c3cccc(-c4nc5ccc(F)cc5[nH]4)c3)cc2)cn1", "IC50": 230},
      {"smiles": "Oc1ccc(CN2CCN(CCOC(c3ccc(F)cc3)c3ccc(F)cc3)CC2)cc1Cl", "IC50": 940},
      {"smiles": "COc1ccc2nc(-c3cccc(C)n3)nc(Nc3ccncc3)c2c1", "IC50": 670},
      {"smiles": "Cn1c(N)c(C(=O)CSc2ncc(-c3ccc(F)cc3)n2Cc2ccccc2)c(=O)n(C)c1=O", "IC50": 570},
      {"smiles": "CCN(CC)c1ccc(C(c2ccc(N(CC)CC)cc2)c2cccc([N+](=O)[O-])c2)cc1", "IC50": 380},
      {"smiles": "O=C1c2ccccc2C(=O)N1c1ccc(S(=O)(=O)N2CCOCC2)cc1", "IC50": 1260},
      {"smiles": "O=c1cc(NCCCNCc2cc(Cl)cc(Cl)c2OCc2ccccc2)[nH]c2ccccc12", "IC50": 1030},
      {"smiles": "CN(C)CCNC(=O)c1cccc(-c2cnc3ccc(NCc4ccc(Cl)c(Cl)c4)nn23)c1", "IC50": 700},
      {"smiles": "CCN(CC)CCCOc1ccc(Nc2nccc(-c3c(-c4cccc(NC(=O)c5c(F)cccc5F)c4)nn4ccccc34)n2)cc1F", "IC50": 410},
      {"smiles": "NC(=O)c1c(Cl)nc2ccccc2c1Cl", "IC50": 960},
      {"smiles": "CC12CN3CC(C)(CN(C1)C3c1cc(Br)ccc1O)C2O", "note": "(centres undefined)", "IC50": 230},
      {"smiles": "CC(CN1CCN(CC(c2ccc(F)cc2)N2CCN(C)CC2)CC1)C(=O)c1ccc(O)cc1", "note": "(centres undefined)", "IC50": 670},
      {"smiles": "NC(=O)c1ccc(-n2cnc3cc(F)ccc32)cc1OCc1ccccc1C(F)(F)F", "note": "(tested in a mixture with another compound)", "IC50": 360},
      {"smiles": "CNCCNCc1cccc(-c2ccc(-c3nc4c(C)cccc4[nH]3)cc2)c1", "IC50": 800},
      {"smiles": "Nc1nc(N)c2c(CCc3ccc4ccccc4c3)cccc2n1", "IC50": 690},
      {"smiles": "Cc1cc(C)c(NC(=O)NC2CCN(CCCCCNC(=O)/C=C/c3ccc(Cl)c(Cl)c3)C2)c(C)c1", "note": "(centres undefined)", "IC50": 190},
      {"smiles": "Cc1cccc2[nH]c(-c3ccc(-c4cccc(NC(=O)NCc5cccc(F)c5)c4)s3)nc12", "IC50": 760},
      {"smiles": "COc1ccc(-c2ccc(NC(=O)c3cccc(C#N)c3)cc2)cc1CN(C)C", "IC50": 730},
      {"smiles": "C=CCOc1ccc2ccccc2c1CNCCCCCCNCc1c(OCC=C)ccc2ccccc12", "IC50": 860},
      {"smiles": "CCOC(=O)c1cccc(NC(=O)Nc2cc(C)nc3ccccc23)c1", "IC50": 290},
      {"smiles": "O=C(NC1CCCCC1)N(Cc1cccc(-c2ccc(CNCc3ccc4c(c3)OCO4)cc2)c1)C1CCN(Cc2ccccc2)CC1", "IC50": 790},
      {"smiles": "N#Cc1ccc(NC(=NCCc2c[nH]c3ccccc23)Nc2ccc(-c3ccccc3)cc2)c(O)c1", "IC50": 340},
      {"smiles": "CCc1ccc(CN(Cc2ccc(C)cc2)Cc2ccc(NC(C)=O)cc2)cc1", "IC50": 960},
      {"smiles": "COc1ccc(NC(=O)/C=C/c2ccc(-c3ccc(-c4noc(C)n4)cc3)cc2)cc1OCCN(C)C", "IC50": 1370},
      {"smiles": "O=C(/C=C/c1ccc(Cl)cc1)NCCCCCN1CCCC(C(=O)Nc2ccc(Cl)cc2)C1", "note": "(centres undefined)", "IC50": 1050},
      {"smiles": "FC(F)(F)c1ccc2nccc(NN=Cc3ccc(Cl)cc3)c2c1", "IC50": 790},
      {"smiles": "COc1ccccc1CCNc1nc(C)cc(N[C@@H](CC(C)C)C(=O)NCc2cccs2)n1", "IC50": 790},
      {"smiles": "CC(C)(C)c1ccc2nc(-c3ccc(C(=O)NCc4cccc(C(F)(F)F)c4)cc3)[nH]c2c1", "IC50": 730},
      {"smiles": "CC(=O)Nc1nc(C(=O)Nc2cccc(-c3cccc(-c4nc5ccc(F)cc5[nH]4)c3)c2)cs1", "IC50": 90},
      {"smiles": "O=C(/C=C/c1ccc(Cl)c(Cl)c1)N1CCC(NCc2ccc3[nH]ccc3c2)CC1", "IC50": 1020},
      {"smiles": "N=C(N)c1ccc(OCc2cccc(COc3ccc(C(=N)N)cc3I)c2)c(I)c1", "IC50": 340},
      {"smiles": "Nc1c2ccccc2nc2cc(C(F)(F)F)ccc12", "IC50": 840},
      {"smiles": "CCCCN(C)CC#Cc1ccc(-c2ccc3[nH]c(C)c(Br)c(=O)c3c2)cn1", "IC50": 650},
      {"smiles": "CN1CCN(CCCN(Cc2cccc(-c3ccc(CNC4CCCC4)cc3)c2)C(=O)CCC2CCCC2)CC1", "IC50": 760},
      {"smiles": "CC(=O)Nc1ccc(C(=O)Nc2cccc(-c3cccc(-c4nc5ccc(F)cc5[nH]4)c3)c2)cn1", "IC50": 130},
      {"smiles": "O=C(CCN(Cc1ccco1)c1nc(-c2ccc(F)cc2)nc2ccccc12)NC1CC1", "IC50": 1580},
      {"smiles": "CCNc1cc(C(=O)N[C@@H](Cc2cccc(Cl)c2)[C@H](O)CNC(C)CCCC(C)C)cc(N2CCCCS2(=O)=O)c1", "note": "(some centres undefined)", "IC50": 290},
      {"smiles": "COc1cc2nccc(Nc3ccc(OCc4ccccc4)cc3)c2cc1OC", "IC50": 200},
      {"smiles": "CCCNCc1ccc(-c2ccc(CN(CCOC)C(=O)COc3ccccc3Cl)cc2)nc1", "IC50": 910},
      {"smiles": "CCCCN(CCCC)CCCN(CCCN(CCCC)CCCC)c1cc(C)nc(Nc2ccc(Br)cc2)n1", "IC50": 130},
      {"smiles": "N#Cc1ccc(C=Cc2nccc3c2[nH]c2ccccc23)cc1", "IC50": 640},
      {"smiles": "CCCCCC(C)N=C(Nc1ccc(C#N)cc1O)Nc1ccccc1Br", "note": "(centres undefined)", "IC50": 750},
      {"smiles": "CC(C)(C)NC(=O)C(c1ccc(F)cc1)N(C(=O)c1ccc(CN2CCOCC2)o1)c1ccc(C2CCCCC2)cc1", "note": "(centres undefined)", "IC50": 920},
      {"smiles": "Cc1cc(Nc2ccc(Cl)c(Cl)c2)n2nc(C)nc2n1", "IC50": 260},
      {"smiles": "O=C1C(C2CCC(c3ccc(Cl)cc3)CC2)=C2OCC3COC2(O3)c2ccccc21", "note": "(centres undefined)", "IC50": 40},
      {"smiles": "CC(C)C[C@H](NC(=O)c1ccc(OCCN2CCOCC2)cc1)C(=O)N[C@H](/C=N/N1CC(=O)NC1=O)CCc1ccccc1", "IC50": 280},
      {"smiles": "C=CCOC(=O)N1CCC(CNCc2cccc(-c3cccc(-c4nc5c(C)cccc5[nH]4)c3)c2)C1", "note": "(centres undefined)", "IC50": 110},
      {"smiles": "COc1cccc(-c2cccc(CNC3CCN(CC4Cn5c(=O)ccc6ccc(F)c4c65)CC3)c2)c1", "note": "(centres undefined)", "IC50": 930},
      {"smiles": "Nc1cccc(CNCc2cccc(-c3csc(-c4nc5ccccc5[nH]4)c3)c2)c1", "IC50": 680},
      {"smiles": "CCCCCc1cc(O)c2c(c1)OC(C)(C)CC2C1=CCN(Cc2cccnc2)CC1", "note": "(centres undefined)", "IC50": 990},
      {"smiles": "COc1c(C2CCN(CCCCNC(=O)c3cc(-c4ccc(Cl)cc4)[nH]c3C)CC2)ccc2c1CCCC2", "IC50": 970},
      {"smiles": "C=CCOC(=O)N1CCC(CNCc2cccc(-c3ccc(-c4nc5c(C)cccc5[nH]4)cc3)c2)C1", "note": "(centres undefined)", "IC50": 250},
      {"smiles": "O=S(=O)(NCCN1CCCC1)c1ccc(-c2cccc(CNCc3ccc(F)cc3)c2)s1", "IC50": 760},
      {"smiles": "O=C(N[C@@H](Cc1ccccc1)C(=O)NC1CCCc2ccccc21)c1ccc(O)c(-c2cccc(C(F)(F)F)c2)c1", "note": "(some centres undefined)", "IC50": 1000},
      {"smiles": "COCCNCc1ccc(-c2cccc(CN(C(=O)NCCc3ccccc3)C3CCN(Cc4ccccc4)CC3)c2)cc1", "IC50": 920},
      {"smiles": "COc1ccc(Nc2nccc(N3CCC(NC(=O)c4cccc(NC(C)=O)c4)C3)n2)cc1", "note": "(centres undefined)", "IC50": 990},
      {"smiles": "COc1cc(CN2CCC(NC(=O)[C@H](Cc3ccccc3)NC(=O)Nc3ccc(Oc4ccccc4)cc3)C2)ccc1O", "note": "(some centres undefined)", "IC50": 810},
      {"smiles": "COc1ccc2ccccc2c1CCCCN1CCN(CC(c2ccc(F)cc2)N2CCN(C3CCCC3)CC2)CC1", "note": "(centres undefined)", "IC50": 770},
      {"smiles": "CN(C)CCN1CCN(Cc2cccc(-c3csc(-c4nc5ccccc5[nH]4)c3)c2)CC1", "IC50": 400},
      {"smiles": "CCC(C)NC(=O)Cn1c2ncccc2c(=O)n1-c1ccc(C)cc1", "note": "(centres undefined)", "IC50": 1260}
    ]}
  ]
}
